Values after ≈ are worked out from the molar mass of the structure shown. Like-named read-outs stand apart in the source and are kept apart here. Bridge positions count the residues as written; N and C are the ends. Square brackets hold non-standard residues; d marks the D form. Peptide text beside a SMILES is read from it. * marks the point of attachment. Ileψ(thiazoline)Cys = CC[C@H](C)[C@H](N)C1=N[C@H](C(=O)*)CS1; dOrn = NCCC[C@@H](N)C(=O)O

One may read the MIC as the lowest concentration that inhibits growth of the organism.

Assay [1] concerns B. subtilis DSM 29871. Format: cell-based, Bacillus subtilis. The note with it: for MIC: Bacillus subtilis.
The subject of assay [2] is B. amyloliquefaciens DSM 29869. Type of assay: cell-based, Bacillus amyloliquefaciens. The following applies: for MIC: Bacillus amyloliquefaciens.
Assay [3] relates to B. subtilis DSM 29870. Type of assay: cell-based, Bacillus subtilis. The following applies: for MIC: Bacillus subtilis.
In assay [4] the test system is B. subtilis DSM 29871. The note with it: EFSA Journal 2012; 10(6): 2740; cited from earlier work.
Assay [5] deals with B. amyloliquefaciens DSM 29869. The following applies: EFSA Journal 2012; 10(6): 2740; cited from earlier work.
Assay [6] relates to B. subtilis DSM 29870. The following applies: EFSA Journal 2012; 10(6): 2740; cited from earlier work.
Assay [7] relates to Clostridium perfringens. Type of assay: in vivo, broiler chickens Cobb×Cobb. The following applies: bacitracin 50 ppm; for Lesion score (d 21): 0 to 3 score; for BWG (g/bird) (d 1-d 28) / Dead birds with necrotic enteritis lesions (%) (d 1-d 28) / FCR (d 1-d 28) / Total mortality (%) (d 1-d 28): infected.
[8] abbreviates: DSM29871, biological replicate MIC 1, 37° C., 20-24 h, read-out: MIC 1.
[9] abbreviates: DSM29871, biological replicate MIC 2, 37° C., 20-24 h, read-out: MIC 2.
Where [10] appears, read: DSM29871, biological replicate MIC 3, 37° C., 20-24 h, read-out: MIC 3.
Setting [11] is: DSM29869, biological replicate MIC 1, 37° C., 20-24 h, read-out: MIC 1.
The mark [12] stands for this setting: DSM29869, biological replicate MIC 2, 37° C., 20-24 h, read-out: MIC 2.
Where [13] appears, read: DSM29869, biological replicate MIC 3, 37° C., 20-24 h, read-out: MIC 3.
The mark [14] stands for this setting: DSM29870, biological replicate MIC 1, 37° C., 20-24 h, read-out: MIC 1.
The mark [15] stands for this setting: DSM29870, biological replicate MIC 2, 37° C., 20-24 h, read-out: MIC 2.
Setting [16] is: DSM29870, biological replicate MIC 3, 37° C., 20-24 h, read-out: MIC 3.
[17] abbreviates: biological replicate MIC 1, 37° C., 20-24 h.
Setting [18] is: Trial 1, DSM 29870 1.10^9 CFU/kg of feed.
The mark [19] stands for this setting: Trial 2, DSM 29870 5.10^8 CFU/kg of feed.
Where [20] appears, read: Trial 3, DSM 29870 5.10^8 CFU/kg of feed.
Setting [21] is: biological replicate MIC 2, 37° C., 20-24 h.
[22] abbreviates: biological replicate MIC 3, 37° C., 20-24 h.

For `O=C(N[C@H](CO)[C@H](O)c1ccc([N+](=O)[O-])cc1)C(Cl)Cl` [Chloramphenicol], the minimum inhibitory concentration (MIC) turned out to be 8 µg/mL (≈ 24.8 µM) in assay [1] (setting [8]); 4 µg/mL (≈ 12.4 µM) in assay [1] (setting [9]); 8 µg/mL (≈ 24.8 µM) in assay [1] (setting [10]); 4 µg/mL (≈ 12.4 µM) in assay [2] (setting [11]); 4 µg/mL (≈ 12.4 µM) in assay [2] (setting [12]); 4 µg/mL (≈ 12.4 µM) in assay [2] (setting [13]). The MIC in assay [3] (setting [14]) amounted to 4 µg/mL (≈ 12.4 µM); in assay [3] (setting [15]), 8 µg/mL (≈ 24.8 µM); in assay [3] (setting [16]), 4 µg/mL (≈ 12.4 µM). Further, the EFSA breakpoints in assay [4], in assay [5] and in assay [6] was 8 µg/mL each time.

In the case of `CCC[C@@H]1C[C@@H](C(=O)N[C@@H]([C@H]2O[C@H](SC)[C@H](O)[C@@H](O)[C@H]2O)[C@H](C)Cl)N(C)C1` [Clindamycin], the MIC in assay [1] (setting [8]) is 0.5 µg/mL (≈ 1.18 µM); in assay [1] (setting [9]) it was 0.25 µg/mL (≈ 0.588 µM); in assay [1] (setting [10]), 0.5 µg/mL (≈ 1.18 µM); in assay [2] (setting [11]) it was 1 µg/mL (≈ 2.35 µM); in assay [2] (setting [12]), 0.5 µg/mL (≈ 1.18 µM); in assay [2] (setting [13]) it was 1 µg/mL (≈ 2.35 µM). In addition, the MIC in assay [3] (setting [14]), in assay [3] (setting [15]) and in assay [3] (setting [16]) was 0.25 µg/mL (≈ 0.588 µM) throughout.

Take `CC[C@H]1OC(=O)[C@H](C)[C@@H](O[C@H]2C[C@@](C)(OC)[C@@H](O)[C@H](C)O2)[C@H](C)[C@@H](O[C@@H]2O[C@H](C)C[C@H](N(C)C)[C@H]2O)[C@](C)(O)C[C@@H](C)C(=O)[C@H](C)[C@@H](O)[C@]1(C)O` [Erythromycin]: the MIC came to 0.125 µg/mL (≈ 0.17 µM) in assay [1] (setting [8]); 0.125 µg/mL (≈ 0.17 µM) in assay [1] (setting [9]); 0.125 µg/mL (≈ 0.17 µM) in assay [1] (setting [10]); 0.5 µg/mL (≈ 0.681 µM) in assay [2] (setting [11]); 0.06 µg/mL (≈ 0.0818 µM) in assay [2] (setting [12]); 0.06 µg/mL (≈ 0.0818 µM) in assay [2] (setting [13]). Further, the MIC in assay [3] (setting [14]), in assay [3] (setting [15]) and in assay [3] (setting [16]) was 0.125 µg/mL (≈ 0.17 µM) each time. For the same compound, the EFSA breakpoints in assay [4], in assay [5] and in assay [6] was 4 µg/mL each time.

Take `NC[C@H]1O[C@H](O[C@H]2[C@H](O)[C@@H](O[C@H]3O[C@H](CO)[C@@H](O)[C@H](N)[C@H]3O)[C@H](N)C[C@@H]2N)[C@H](O)[C@@H](O)[C@@H]1O` [Kanamycin]: the MIC in assay [1] (setting [8]) stood at 2 µg/mL (≈ 4.13 µM); in assay [1] (setting [9]) it was 1 µg/mL (≈ 2.06 µM); in assay [1] (setting [10]), 2 µg/mL (≈ 4.13 µM); in assay [2] (setting [11]), 2 µg/mL (≈ 4.13 µM); in assay [2] (setting [12]) it was 0.5 µg/mL (≈ 1.03 µM); in assay [2] (setting [13]), 0.5 µg/mL (≈ 1.03 µM). Besides, the MIC in assay [3] (setting [14]) is 2 µg/mL (≈ 4.13 µM); in assay [3] (setting [15]), 1 µg/mL (≈ 2.06 µM); in assay [3] (setting [16]), 2 µg/mL (≈ 4.13 µM).

On to `[H]/N=C(/N)N[C@H]1[C@H](O)[C@@H](O)[C@H](O[C@@H]2O[C@@H](C)[C@](O)(C=O)[C@H]2O[C@@H]2O[C@@H](CO)[C@H](O)[C@@H](O)[C@@H]2NC)[C@@H](N/C(N)=N\[H])[C@@H]1O` [Streptomycin], for which the MIC in assay [1] (setting [8]) came out at 32 µg/mL (≈ 55 µM); in assay [1] (setting [9]), 16 µg/mL (≈ 27.5 µM); in assay [1] (setting [10]), 32 µg/mL (≈ 55 µM); in assay [2] (setting [11]), 2 µg/mL (≈ 3.44 µM); in assay [2] (setting [12]) it was 4 µg/mL (≈ 6.88 µM); in assay [2] (setting [13]), 4 µg/mL (≈ 6.88 µM). Also, the values for the MIC in assay [3] (setting [14]), in assay [3] (setting [15]) and in assay [3] (setting [16]) were 4 µg/mL (≈ 6.88 µM), 4 µg/mL (≈ 6.88 µM) and 8 µg/mL (≈ 13.8 µM), respectively. Besides, the EFSA breakpoints in assay [4], in assay [5] and in assay [6] was 8 µg/mL throughout.

With `CN(C)[C@@H]1C(O)=C(C(N)=O)C(=O)[C@@]2(O)C(O)=C3C(=O)c4c(O)cccc4[C@@](C)(O)[C@H]3C[C@@H]12` [Tetracycline], the MIC in assay [1] (setting [8]) is 2 µg/mL (≈ 4.5 µM); in assay [1] (setting [9]), 4 µg/mL (≈ 9 µM); in assay [1] (setting [10]), 4 µg/mL (≈ 9 µM); in assay [2] (setting [11]) it was 16 µg/mL (≈ 36 µM); in assay [2] (setting [12]), 8 µg/mL (≈ 18 µM); in assay [2] (setting [13]) it was 8 µg/mL (≈ 18 µM). In addition, the MIC in assay [3] (setting [14]), in assay [3] (setting [15]) and in assay [3] (setting [16]) was 0.25 µg/mL (≈ 0.563 µM) in each case. Also, the “MIC 1” value in assay [2] (setting [17]) was 16 µg/mL (≈ 36 µM).

Consider `CN[C@H](CC(C)C)C(=O)N[C@H]1C(=O)N[C@@H](CC(N)=O)C(=O)N[C@H]2C(=O)N[C@H]3C(=O)N[C@H](C(=O)N[C@H](C(=O)O)c4cc(O)cc(O)c4-c4cc3ccc4O)[C@H](O)c3ccc(c(Cl)c3)Oc3cc2cc(c3O[C@@H]2O[C@H](CO)[C@@H](O)[C@H](O)[C@H]2O[C@H]2C[C@](C)(N)[C@H](O)[C@H](C)O2)Oc2ccc(cc2Cl)[C@H]1O` [Vancomycin], for which the MIC in assay [1] (DSM29871, read-out: MIC 2) is 0.25 µg/mL (≈ 0.173 µM); in assay [1] (DSM29871, read-out: MIC 3), 0.25 µg/mL (≈ 0.173 µM); in assay [1] (setting [8]) it was 0.25 µg/mL (≈ 0.173 µM); in assay [2] (DSM29869, read-out: MIC 2), 0.25 µg/mL (≈ 0.173 µM); in assay [2] (setting [11]), 0.25 µg/mL (≈ 0.173 µM); in assay [2] (setting [13]), 0.25 µg/mL (≈ 0.173 µM). In addition, the MIC in assay [3] (DSM29870, read-out: MIC 2) was determined as 0.25 µg/mL (≈ 0.173 µM); in assay [3] (DSM29870, read-out: MIC 3), 0.25 µg/mL (≈ 0.173 µM); in assay [3] (setting [14]), 0.25 µg/mL (≈ 0.173 µM). Also, the EFSA breakpoints in assay [4], in assay [5] and in assay [6] was 4 µg/mL in each case.

Regarding `CC[C@H](C)[C@H](N)C1=N[C@H](C(=O)N[C@@H](CC(C)C)C(=O)N[C@H](CCC(=O)O)C(=O)N[C@H](C(=O)N[C@H]2CCCCNC(=O)[C@H](CC(N)=O)NC(=O)[C@@H](CC(=O)O)NC(=O)[C@H](Cc3cnc[nH]3)NC(=O)[C@@H](Cc3ccccc3)NC(=O)[C@H]([C@@H](C)CC)NC(=O)[C@@H](CCCN)NC2=O)[C@@H](C)CC)CS1` [bacitracin] ({Ileψ(thiazoline)Cys}-L[dE]IK[dOrn]I[dF]H[dD]N; lactam 4-C), in assay [7] (setting [18]), the “Lesion score (d 21)” value is recorded as 0.2a, the “BWG (g/bird) (d 1-d 28)” value stood at 633ab g/bird, the “Dead birds with necrotic enteritis lesions (%) (d 1-d 28)” value (from here on “Dead birds … (%) (d 1-d 28)”) was 1.6b % and the “FCR (d 1-d 28)” value worked out at 1.813bc. The “Total mortality (%) (d 1-d 28)” value in assay [7] (setting [18]) worked out at 5.0b %. Also, in assay [7] (setting [19]), the “Lesion score (d 21)” value was 0.6b, the “BWG (g/bird) (d 1-d 28)” value is 665ab g/bird, the “Dead birds … (%) (d 1-d 28)” value turned out to be 6.3c % and the “FCR (d 1-d 28)” value is 1.759b. Besides, the “Total mortality (%) (d 1-d 28)” value in assay [7] (setting [19]) stood at 12.5bc %. In addition, in assay [7] (setting [20]), the “Lesion score (d 21)” value was 0.6a, the “BWG (g/bird) (d 1-d 28)” value is 645a g/bird, the “Dead birds … (%) (d 1-d 28)” value amounted to 4.7bc % and the “FCR (d 1-d 28)” value was 1.786bc. Moreover, the “Total mortality (%) (d 1-d 28)” value in assay [7] (setting [20]) is 15.0a %.

For the compound Gentamycin, the “MIC 1” value was 0.25 µg/mL in assay [1] (setting [17]), 0.5 µg/mL in assay [2] (setting [17]) and 0.25 µg/mL in assay [3] (setting [17]). For the same compound, the “MIC 2” value in assay [1] (setting [21]), in assay [2] (setting [21]) and in assay [3] (setting [21]) was 0.125 µg/mL each time. In addition, the “MIC 3” value in assay [1] (setting [22]) came to 0.25 µg/mL; in assay [2] (setting [22]) it was 0.06 µg/mL; in assay [3] (setting [22]), 0.25 µg/mL. Further, the EFSA breakpoints in assay [4], in assay [5] and in assay [6] was 4 µg/mL in each case.

Values taken from patent US11331351B2, “Bacillus strains improving health and performance of production animals” (priority 2015, dated 2022).
